Values after ≈ are worked out from the molar mass of the structure shown. Like-named read-outs stand apart in the source and are kept apart here.
How the values were obtained:
Assay type in all cases: cell-based
[1] = test system: EC107 E. coli ATCC25922; assay: broth dilution MIC, E. coli EC107; settings: Escherichia coli, read-out: MIC
Method in brief: (§1)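 Broth dilution (CLSI standard) gave the minimum inhibitory concentrations. Resistance genotypes in the panel can be constitutive or inducible.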

[2] = test system: BS1725 B. subtilis ermC; assay: broth dilution MIC, B. subtilis BS1725; settings: Bacillus subtilis
Method in brief: as §1

[3] = test system: SA101 S. aureus ATCC29213; assay: broth dilution MIC, S. aureus SA101; settings: Staphylococcus aureus, ATCC29213, SA101 S. aureus ATCC29213; read-out: MIC
Method in brief: as §1

[4] = test system: HI281 H. influenzae; assay: broth dilution MIC, H. influenzae HI281; settings: Haemophilus influenzae
Text: (§2) We have collected MIC data for a total of 50 novel macrolides that this platform has produced against over 21 unique strains of B. subtilis, E. coli, S. aureus, S. pneumoniae, and H. influenzae, including several multidrug-resistant strains, with a special focus on macrolide resistant mechanisms (vide supra). Azithromycin was included as a control macrolide. CLSI standard procedures for broth dilution MIC determination were used. […] These genotypes can be constitutive or inducible. The finding that C4-epi (unnatural) isomers of the “azaketolide” macrolide class have enhanced activities relative to C4 natural isomers is very exciting.

[5] = test system: E. faecalis strains; assay: MIC against E. faecalis strains (Table M8); settings: for MIC: Enterococcus faecalis, E. faecalis 29212
[6] = test system: EC882 E. coli imp; assay: broth dilution MIC, E. coli EC882; settings: Escherichia coli
Method in brief: as §1

[7] = test system: Spn1509 S. pneumoniae ermB positive mefA negative; assay: broth dilution MIC, S. pneumoniae Spn1509; settings: Streptococcus pneumoniae
Text: as §2

[8] = test system: SA1707 S. aureus ermA negative msrA positive; assay: broth dilution MIC, S. aureus SA1707; settings: Staphylococcus aureus
Text: as §2

[9] = test system: SA506 S. aureus ermA positive msrA unknown; assay: broth dilution MIC, S. aureus SA506; settings: Staphylococcus aureus
Text: as §2

[10] = test system: Spn 106 S. pneumonia ATCC49619; assay: broth dilution MIC, S. pneumoniae Spn 106; settings: Streptococcus pneumoniae
Text: as §2

[11] = test system: EC878 E. coli tolC; assay: broth dilution MIC, E. coli EC878; settings: Escherichia coli
Method in brief: as §1

[12] = test system: E. coli strains; assay: MIC against E. coli strains (Table M7); settings: Escherichia coli, ATCC25922, E. coli ATCC 25922
Method in brief: as §1

[13] = test system: Spn1537 S. pneumoniae ermB positive mefA positive; assay: broth dilution MIC, S. pneumoniae Spn1537; settings: Streptococcus pneumoniae
Text: as §2

[14] = test system: HI175 H. influenzae ATCC49247; assay: broth dilution MIC, H. influenzae HI175; settings: Haemophilus influenzae
Text: as §2

[15] = test system: S. aureus strains; assay: MIC against S. aureus strains (Table M7); settings: for MIC: Staphylococcus aureus
Method in brief: as §1

[16] = test system: Spn1533 S. pneumoniae ermB positive mefA positive; assay: broth dilution MIC, S. pneumoniae Spn1533; settings: Streptococcus pneumoniae
Text: as §2

[17] = test system: A. baumannii strains; assay: MIC against A. baumannii strains (Table M8); settings: Acinetobacter baumannii, BAA747, A. baumannii BAA747-1
[18] = test system: Spn1427 S. pneumoniae ermB positive mefA negative; assay: broth dilution MIC, S. pneumoniae Spn1427; settings: Streptococcus pneumoniae
Text: as §2

[19] = test system: SA557 S. aureus ermA unknown msrA positive; assay: broth dilution MIC, S. aureus SA557; settings: Staphylococcus aureus; SA557 S. aureus ermA unknown msrA positive; read-out: MIC
Text: as §2

[20] = test system: S. pneumoniae strains; assay: MIC against S. pneumoniae strains (Tables M7, M8); settings: Streptococcus pneumoniae
Text: CLSI standard procedures for broth dilution MIC determination were used. […] These genotypes can be constitutive or inducible.

[21] = test system: K. pneumoniae strains; assay: MIC against K. pneumoniae strains (Table M8); settings: Klebsiella pneumoniae, K. pneumoniae 10031
[22] = test system: SA1708 S. aureus ermA positive msrA negative; assay: broth dilution MIC, S. aureus SA1708; settings: Staphylococcus aureus
Text: as §2

[23] = test system: BS1723 B. subtilis BS168 WT wild type; assay: broth dilution MIC, B. subtilis BS1723; settings: Bacillus subtilis, BS1723 B. subtilis BS168 WT wild type; read-out: MIC
Method in brief: as §1

[24] = test system: Spn160 S. pneumoniae ermB unknown mefA positive; assay: broth dilution MIC, S. pneumoniae Spn160; settings: Streptococcus pneumoniae; Spn160 S. pneumoniae ermB unknown mefA positive; read-out: MIC
Text: as §2

[25] = test system: SA183 S. aureus ermA positive msrA unknown; assay: broth dilution MIC, S. aureus SA183; settings: Staphylococcus aureus
Text: as §2

[26] = test system: SA418 S. aureus ermA negative msrA positive; assay: broth dilution MIC, S. aureus SA418; settings: Staphylococcus aureus
Text: as §2

[27] = test system: H. influenzae strains; assay: MIC against H. influenzae strains (Table M8); settings: Haemophilus influenzae
Method in brief: as §1

[28] = test system: S. aureus (Newman, clinical isolate); assay: MIC, S. aureus Newman; settings: Staphylococcus aureus, S. aureus (Neuman, clinical isolate), round 2
Method in brief: as §1

[29] = test system: E. coli (MC4100); assay: MIC, E. coli MC4100; settings: Escherichia coli, round 2, read-out: MIC
Method in brief: as §1

[30] = Spn1509 S. pneumoniae ermB positive mefA negative, read-out: MIC
[31] = Spn 106 S. pneumonia ATCC49619, read-out: MIC
[32] = ATCC29213, S. aureus ATCC 29213, read-out: MIC S. aureus (ATCC 29213)
[33] = S. aureus 506, read-out: MIC S. aureus (506)
[34] = S. aureus 1708, read-out: MIC S. aureus (1708)
[35] = USA300, S. aureus USA300, read-out: MIC S. aureus (USA300)
[36] = S. pneumoniae 160, read-out: MIC S. pneumonae (160)
[37] = S. pneumoniae 1509, read-out: MIC S. pneumoniae (1509)
[38] = S. pneumoniae 1533, read-out: MIC S. pneumoniae (1533)
[39] = S. pneumoniae 1537, read-out: MIC S. pneumoniae (1537)
[40] = H. influenzae 49247, read-out: MIC H. influenzae (49247)
[41] = H. influenzae 49766, read-out: MIC H. influenzae (49766)

SMILES | MIC [1] | MIC ([2]; BS1725 B. subtilis ermC (+ery)) | MIC [3] | MIC [4] | MIC [5] | MIC [6] | MIC [7, 30] | MIC [8] | MIC [9] | MIC [11] | MIC [13] | MIC [14] | MIC [16] | MIC [18] | MIC [19] | MIC [22] | MIC [23] | MIC [24] | MIC [25] | MIC [26] | further results
CC[C@H]1OC(=O)C(C)(F)C(=O)[C@@H](C)[C@@H](O[C@@H]2OC(C)CC(N(C)C)C2O)[C@](C)(OC)C[C@@H](C)CN[C@H](C)[C@H]2N(CCCCn3cc(-c4cccc(N)c4)nn3)C(=O)O[C@]12C (some centres unmarked) [FSM-20720] | > 32 µg/mL | > 32 µg/mL | 4 to 8 µg/mL (≈ 4.73 to 9.46 µM) | 32 µg/mL (≈ 37.8 µM) | 2 µg/mL (≈ 2.36 µM) | 1 µg/mL (≈ 1.18 µM) | 2 µg/mL (≈ 2.36 µM) | 16 µg/mL (≈ 18.9 µM) | > 32 µg/mL | 1 µg/mL (≈ 1.18 µM) | > 32 µg/mL | 4 µg/mL (≈ 4.73 µM) | > 32 µg/mL | 8 µg/mL (≈ 9.46 µM) | 8 µg/mL (≈ 9.46 µM) | 16 µg/mL (≈ 18.9 µM) | 4 µg/mL (≈ 4.73 µM) | 0.5 µg/mL (≈ 0.591 µM) | > 32 µg/mL | 8 µg/mL (≈ 9.46 µM) | MIC [10, 31]: 0.125 µg/mL (≈ 0.148 µM); MIC [12]: > 32 µg/mL; MIC [15, 32]: 4 µg/mL (≈ 4.73 µM); MIC [15, 33]: > 32 µg/mL; MIC [15, 34]: 8 µg/mL (≈ 9.46 µM); MIC [15, 35]: 8 µg/mL (≈ 9.46 µM); MIC [17]: > 32 µg/mL; MIC [20, 36]: 0.5 µg/mL (≈ 0.591 µM); MIC [20, 37]: 8 µg/mL (≈ 9.46 µM); MIC [20, 38]: > 32 µg/mL; MIC [20, 39]: > 32 µg/mL; MIC ([20]; S. pneumoniae 49619, read-out: MIC S. pneumoniae (49619)): 1 µg/mL (≈ 1.18 µM); MIC [21]: 8 µg/mL (≈ 9.46 µM); MIC [27, 40]: 8 µg/mL (≈ 9.46 µM); MIC [27, 41]: 32 µg/mL (≈ 37.8 µM)
CC[C@H]1OC(=O)C(C)(F)C(=O)[C@@H](C)[C@@H](O[C@@H]2OC(C)CC(N(C)C)C2O)[C@](C)(OC)C[C@@H](C)CN[C@H](C)[C@H]2N(CCCCn3cc(-c4ccccn4)nn3)C(=O)O[C@]12C (some centres unmarked) [FSM-20716] | > 32 µg/mL | > 32 µg/mL | 8 µg/mL (≈ 9.62 µM) | > 32 µg/mL | – | 0.25 µg/mL (≈ 0.3 µM) | 8 µg/mL (≈ 9.62 µM) | 16 µg/mL (≈ 19.2 µM) | > 32 µg/mL | 1 µg/mL (≈ 1.2 µM) | > 32 µg/mL | 8 µg/mL (≈ 9.62 µM) | > 32 µg/mL | > 32 µg/mL | 16 µg/mL (≈ 19.2 µM) | 32 µg/mL (≈ 38.5 µM) | 8 µg/mL (≈ 9.62 µM) | 0.5 µg/mL (≈ 0.601 µM) | > 32 µg/mL | 16 µg/mL (≈ 19.2 µM) | MIC ([2]; BS1725 B. subtilis ermC (−ery)): 4 µg/mL (≈ 4.81 µM); MIC [10, 31]: 0.25 µg/mL (≈ 0.3 µM)
CC[C@H]1OC(=O)[C@H](C)[C@@H](O[C@H]2C[C@@](C)(OC)[C@@H](O)[C@H](C)O2)[C@H](C)[C@@H](O[C@@H]2O[C@H](C)C[C@H](N(C)C)[C@H]2O)[C@](C)(O)C[C@@H](C)CN(C)[C@H](C)[C@@H](O)[C@]1(C)O [Azithromycin, reference compound] | 4 µg/mL (≈ 5.34 µM) | > 32 µg/mL | 1 to 2 µg/mL (≈ 1.34 to 2.67 µM) | 4 µg/mL (≈ 5.34 µM) | 8 µg/mL (≈ 10.7 µM) | 0.0625 µg/mL (≈ 0.0834 µM) | – | > 32 µg/mL | > 32 µg/mL | 0.5 µg/mL (≈ 0.668 µM) | > 32 µg/mL | 2 µg/mL (≈ 2.67 µM) | > 32 µg/mL | > 32 µg/mL | > 32 µg/mL | > 32 µg/mL | 0.5 µg/mL (≈ 0.668 µM) | 2 µg/mL (≈ 2.67 µM) | > 32 µg/mL | > 32 µg/mL | MIC ([2]; BS1725 B. subtilis ermC (−ery)): > 32 µg/mL; MIC E. faecalis (29212) [5]: 16 µg/mL (≈ 21.4 µM); MIC [28]: 1 µg/mL (≈ 1.34 µM); MIC [7]: > 32 µg/mL; MIC ([10]; ATCC49619): 0.0625 µg/mL (≈ 0.0834 µM); MIC [12]: 8 µg/mL (≈ 10.7 µM); MIC S. aureus (ATCC 29213) ([15]; S. aureus ATCC 29213): 1 µg/mL (≈ 1.34 µM); MIC [15, 32]: 2 µg/mL (≈ 2.67 µM); MIC ([15]; S. aureus 183, read-out: MIC S. aureus (183)): > 32 µg/mL; MIC [15, 33]: > 32 µg/mL; MIC [15, 34]: > 32 µg/mL; MIC [15, 35]: > 32 µg/mL; MIC [29]: 8 µg/mL (≈ 10.7 µM); MIC [20, 36]: 2 µg/mL (≈ 2.67 µM); MIC [20, 37]: > 32 µg/mL; MIC [20, 38]: > 32 µg/mL; MIC [20, 39]: > 32 µg/mL; MIC [21]: 2 µg/mL (≈ 2.67 µM); MIC [27, 40]: 0.25 µg/mL (≈ 0.334 µM); MIC [27, 41]: 2 µg/mL (≈ 2.67 µM)

Source: patent US9982005B2, “Macrolides and methods of their preparation and use” (President and Fellows of Harvard College, priority 2013, dated 2018)
